Assay [1] relates to helical lysyl hydroxylase. To be noted: cited from earlier work.
Assay [2] concerns lysyl hydroxylation level of the telopeptides (pyridinoline cross-links) in chondrocytes. Description: Pyridinoline (HP and LP) cross-links in collagen from calf chondrocytes cultured in alginate beads with minoxidil. It counts as cell-based, calves. As to conditions: culture period of 20–50 days. How it is done: Chondrocytes from the metacarpophalangeal joint of calves (12–14 months old, local slaughterhouse) were isolated by collagenase digestion: cartilage slices were minced and digested overnight at 37° C. in 0.14% (w/v) collagenase (Worthington CLS2) in Dulbecco's modified Eagle's medium (DMEM). After filtration of the suspension, cells were washed suspended in 1.2% (w/v) alginate (Keltone LVCR) in 0.9% NaCI at a density of 4×10^6 cells/ml, which was passed dropwise through a 22-gauge needle into 102 mM CaCl2. After 10 min of polymerization, beads were washed in 0.9% (w/v) NaCl (three times) and finally in complete medium: DMEM-Glutamax (Gibco BRL) supplemented with 100 U/ml of penicillin/streptomycin, 10% (v/v) foetal calf serum and 50 μg/ml ascorbic acid. The cells were cultured at 10 beads per 0.5 ml medium in a humid atmosphere of 5% CO2 in air at 37° C.; the medium was refreshed twice weekly. Minoxidil was dissolved in complete medium and added to the culture after 7 days of preculture under control conditions. Harvested beads were washed with 0.9% NaCl containing 10 mM CaCl2 and hydrolyzed in 900 μl 6 M HCl at 108° C. for 20–24 h. […] Based on hydroxyproline levels, amounts of collagen were calculated, assuming 300 hydroxyproline residues/triple helix. […] Crosslinks were expressed as amount of residues per collagen molecule.

Assay [3] deals with PLOD2B mRNA. Description: PLOD2B mRNA levels by real-time PCR in minoxidil-treated human skin fibroblasts and myofibroblasts. It counts as cell-based. As to conditions: 1 mM minoxidil, 41 hours, versus untreated (FIG. 8). The protocol: To substantiate that minoxidil suppresses the expression of PLOD2, human skin fibroblasts and myofibroblasts were cultured in 25 cm^2 flasks in DMEM (Gibco) supplemented with 10% FBS in 5% CO2. At near confluency the fibroblasts and myofibroblasts were incubated for 41 hours in medium containing 1 mM minoxidil. Minoxidil was dissolved at room temperature in medium with 10% FBS for 8 hours which was filtered prior to use. As a control both cell types were incubated for 41 hours in medium without minoxidil. At the end of the incubation period, the cells were washed with PBS and lysed with 600 μl RLT-buffer (RNeasy kit, Qiagen). RNA was isolated following the manufacturers protocol and subsequently reverse transcribed into cDNA (first strand cDNA synthesis kit, Roche Molecular Biochemicals). The levels of PLOD2B mRNA in the untreated and minoxidil-treated cells were quantified using real-time PCR as described in example 8. […]
Real time PCR amplification of PLOD2 and β2-microglobulin was performed, using specific primers (PLOD2 forward primer: 5′ […] 3′ (SEQ ID NO:48) PLOD2 reverse primer: 5′ […] 3′ (SEQ ID NO:49)β2-microglobulin forward primer; 5′ […] 3 (SEQ ID NO:50)β32-microglobulin reverse primer 5′ […] 3′) (SEQ ID NO:51) and specific molecular beacons PLOD2: 5′ FAM-cgtgcg[…] […] Data was analysed using sequence detector V1.7 software.
On the technique in general: Quantitative PCR measures a nucleic acid by following its amplification.

The test system of assay [4] is PLOD2B mRNA. Description: PLOD2B mRNA levels by real-time PCR in TGF-β-treated human skin fibroblasts. It counts as cell-based. As to conditions: for increase of PLOD2B mRNA levels: human skin fibroblasts, 1, 5 or 10 nM, 50 hours, versus untreated (FIG. 9). The protocol:
Human skin fibroblasts were cultured in 25 cm^2 flasks in DMEM (Gibco) supplemented with 10% FBS in 5% CO2. At near confluency the fibroblasts and myofibroblasts were incubated for 50 hours in medium containing 1, 5 or 10 nM human recombinant TGF-β1, -β2 or -β3. As a control, human skin fibroblasts were incubated for 50 hours in medium without the addition of TGF-β. At the end of the incubation period, the cells were washed with PBS and lysed with 600 μl RLT-buffer (RNeasy kit, Qiagen). RNA was isolated following the manufacturers protocol and subsequently reverse transcribed into cDNA (first strand cDNA synthesis kit, Roche Molecular Biochemicals). The levels of PLOD2B mRNA in the untreated and TGF-β treated cells were quantified using real-time PCR as described in example 8.
RNA, obtained from cultured human skin fibroblasts and cultured human myofibroblast, was isolated using the RNeasy kit (Qiagen). To remove any genomic DNA in the RNA sample, a Dnase treatment was carried out, using RQ1 Rnase-free Dnase (Promega). RNA was then reverse transcripted into cDNA and subjected to real time PCR amplification.
Real time PCR amplification of PLOD2 and β2-microglobulin was performed, using specific primers (PLOD2 forward primer: 5′ […] 3′ (SEQ ID NO:48) PLOD2 reverse primer: 5′ […] 3′ (SEQ ID NO:49)β2-microglobulin forward primer; 5′ […] 3 (SEQ ID NO:50)β32-microglobulin reverse primer 5′ […] 3′) (SEQ ID NO:51) and specific molecular beacons PLOD2: 5′ FAM-cgtgcg[…] (SEQ ID NO:52) cgcacg-DABCYL 3 ′; β2-microglobulin: 5′HEX-cgtgc[…] (SEQ ID NO:53) gcacg-DABCYL 3′). PLOD2 was amplified in a multiplex PCR together with β2-microglobulin in a total reaction volume of 25μl, containing 1×PCR buffer (Applied Biosystems), 0.4 mM of each dNTP, 3.5 mM Mg^2+, 250 nM of each target primer, 100 nM of each primer for μ2microglobulin and 1 unit Amplitaq Gold polymerase (Applied Biosystems). PCR was performed in a ABI PRISM® 7700 Sequence Detection System and consisted of a 5 minute interval at 95° C., followed by 40 cycles of 95° C. for 30 seconds, 56° C. for 40 seconds and 72° C. for 30 seconds. Data was analysed using sequence detector V1.7 software.

For `CCOC(=O)CC(SP(=O)(OC)OC)C(=O)OCC` (stereo not shown) [malaoxon], the “helical lysyl hydroxylase inhibition” value in assay [1] is reported as “inhibit”. For `CCOC(=O)CC(SP(=S)(OC)OC)C(=O)OCC` (stereo not shown) [malathion], the “helical lysyl hydroxylase inhibition” value in assay [1] is “inhibit”. On to `Nc1cc(N2CCCCC2)nc(N)[n+]1[O-]` [minoxidil], for which the “amount of pyridinolines (HP and LP), mean” value in assay [2] (alginate beads cultured with 0.3 mM minoxidil) is reported as 0.38 residues/collagen molecule; in assay [2] (alginate beads cultured with 1.0 mM or 2.0 mM minoxidil), “around 0.15 residues/collagen molecule”. Moreover, the “reduction of PLOD2B mRNA levels” value is given as “about 15 fold” in the assay on PLOD2B mRNA [3] (human myofibroblasts) and 4 fold with PLOD2B mRNA [3] (human skin fibroblasts).

For the molecule TGF-β, in the assay with PLOD2B mRNA [4] (fibroblasts, TGF-β added to the culture medium), the “expression of PLOD2B (FIG. 9 legend, in words)” value is recorded as “increased”. Turning to TGF-β1: human recombinant TGF-β1, the “increase of PLOD2B mRNA levels” value in the assay on PLOD2B mRNA [4] is listed as “about 20 fold”.

B1: TGF-β2: human recombinant TGF-β2 (protein, UniProt P61812 303-414, looked up)
Transforming growth factor …: ALDAAYCFRNVQDNCCLRPLYIDFKRDLGWKWIHEPKGYNANFCAGACPYLWSSDTQHSRVLSLYNTINPEASASPCCVSQDLEPLTILYYIGKTPKIEQLSNMIVKSCKCS
On to B1, for which the “increase of PLOD2B mRNA levels” value in the assay with PLOD2B mRNA [4] was “about 20 fold”.

B2: TGF-β3: human recombinant TGF-β3 (protein, UniProt P10600 301-412, looked up)
Transforming growth factor …: ALDTNYCFRNLEENCCVRPLYIDFRQDLGWKWVHEPKGYYANFCSGPCPYLRSADTTHSTVLGLYNTLNPEASASPCCVPQDLEPLTILYYVGRTPKVEQLSNMVVKSCKCS
Regarding B2, the “increase of PLOD2B mRNA levels” value in the assay with PLOD2B mRNA [4] was “about 20 fold”.

The values above are taken from patent publication US7045600B2, “Modification of collagenous materials and medical treatment, diagnosis and monitoring of fibrotic conditions” (Nederlandse Organisatie voor …, priority 1999, dated 2006).
